Tests used:
C57BL/6J mice = assay: LPS-induced acute lung injury in mice; format: in vivo, mouse
Procedure: The randomization of C57bl/6j mice into experimental and control groups was based on body weight and behavioral activity assessed in an open field test 24 h before the start of the experiment. The next day, mice were treated with vehicle or test compounds 1 h before intratracheal instillation of LPS solution in sterile saline.
The randomization of C57BL/6J mice was performed by body weight and motor activity in an open field test. Dexamethasone (5 mg/kg) and 9g (30 mg/kg) were administered intraperitoneally in 10 mL/kg sterile saline. The control animals received an equal volume of the vehicle. After 1 h, the mice were anesthetized with isoflurane inhalation until their breathing rate was decreased. The mice were suspended by the front incisors on an inclined surgical table, the tongue was pulled out with narrow curved tweezers, and 1 mg/mL of E. coli O127:B8 LPS (Sigma-Aldrich, St. Louis, MO, USA) in 1 mL/kg sterile saline was injected into the back of the oropharynx. Intact control animals received an equal volume of sterile saline similarly.
The animals were placed in the center of a round open field with an arena of 44 cm diameter and 32 cm wall height under 300 lux lighting. During 5 min of observation, horizontal motor activity, vertical motor activity, time spent in the central part, the number of exits to the central part, and exploratory activity parameters were recorded. Body temperature was determined rectally.
The mice were anesthetized with 500 mg/kg chloral hydrate (Sigma-Aldrich, St. Louis, MO, USA) intraperitoneally 24 h after LPS administration. Blood was taken by intracardiac puncture in test tubes with heparin. The blood samples were centrifuged at 1000 g and 4 °C for 15 min on a 2–16PK centrifuge (Sigma, Germany), and plasma was separated and stored at −80 °C until the assay. Thoracotomy was performed, the ligature was applied to the left bronchus and the trachea was cannulated with a 20 G needle. The right lung was washed twice with 0.7 mL of warm sterile saline. After combining aliquots, the bronchoalveolar lavage (BAL) was centrifuged at 800 g and 4 °C for 10 min. The supernatant was separated and stored at −80 °C until the assay. The residual cell pellet was resuspended in 50 μL of PBS for further study. The left lung was washed in saline and placed in 10% buffered formalin for morphological evaluation.
The total number of leukocytes in heparinized blood was determined after staining with methylene blue in Goryaev’s counting chamber at ×100 magnification. Smears of blood and BAL cell pellets were air-dried, fixed according to May–Grunwald for 3 min, and stained according to Romanowsky–Giemsa. After 30 min, the slides were washed, air-dried, and examined with immersion objective (×1000 total magnification). On each slide, a total of at least 100 cells were calculated.
The concentration of total protein in BAL supernatants was determined spectrophotometrically with the pyrogallol red method, and the protein in the blood plasma was determined with the biuret method using commercial kits (Vital, Saint Petersburg, Russia) and bovine serum albumin as the standard. The lung permeability index was calculated as the protein concentration in the BAL to plasma ratio.
Morphological markers of inflammation in lung tissue were assessed in a semi-quantitative way on paraffin sections stained with hematoxylin and eosin. The sections were examined under a light microscope (Zeiss, Germany) by a double-blind method. The score of inflammation was determined as follows: 0—the presence of single inflammatory cells; 1—weak inflammation, inflammatory cells infiltrate no more than 10% of the lung tissue, including interalveolar cell partitions; 2—moderate inflammation, inflammatory cells infiltrate no more than 50% of the structures of the lung, but the interstitial tissue is identified; 3—severe inflammation, inflammatory cells densely infiltrate more than 50% of the lung tissue and airways.

[1] = test system: LPS-stimulated peritoneal macrophages of C57bl/6j mice; assay: Inhibition of LPS-induced NO synthesis (nitrite accumulation, Griess reagent) in peritoneal macrophages; format: cell-based, mouse; conditions: Mus musculus, Peritoneal macrophage
Procedure: (§1) Peritoneal macrophages (PM) were isolated from the peritoneal exudate of 30 male C57bl/6j mice. To accumulate PM, 1 mL of 3% peptone solution was injected intraperitoneally. After 3 days, the mice were euthanized by cervical dislocation. Cells of peritoneal exudate were obtained by aseptic washing of the abdominal cavity with 5 mL of sterile Hanks’s solution (+4–6 °C) without calcium and magnesium ions. The total number and viability of cells were assessed in a Goryaev counting chamber (Russia) with a 0.4% trypan blue staining (Sigma-Aldrich, St. Louis, MO, USA). The cell concentration was adjusted to 1.0 × 10^6 cells/mL in DMEM (Gibco) supplemented with 2 mM L-glutamine (Gibco, Waltham, MA, USA), 10% heat-inactivated fetal bovine serum (BioClot, Bavaria, Germany), 100 U/mL penicillin, and […] streptomycin (Gibco) and plated 200 μL/well in 96-well transparent plates (SPL Life Sciences Co., Ltd., Pocheon-si, Korea). After 2 h at 37 °C in a humidified atmosphere with 5% CO2, the wells were washed to remove non-adherent cells. After 24 h of incubation, 20 μL of the supernatants were substituted with 20 μL of solutions of test compounds, followed by E. coli O127:B8 LPS (100 ng/mL final concentration) after 30 min. The experiments were run in 3 independent replicates.
The accumulation of the nitrite anion (a stable end product of NO decomposition produced by iNOS) in supernatants was determined using a standard Griess reagent. Briefly, 50 μL of supernatants were collected 22 h after incubation of PM, and the test and control compounds were mixed with 50 μL of 1% […] in 2.5% H3PO4 and 50 μL of 0.1% N-(1-naphthyl) ethylenediamine in 2.5% H3PO4. After incubation at 23 °C for 10 min in an orbital shaker, the optical density was determined at a wavelength of 550 nm with a microplate reader Infinite M200 PRO (Tecan, Grödig, Austria).

[2] = Cell viability of LPS-stimulated macrophages, MTT test; format: cell-based; conditions: male, C57bl/6j, mouse
Procedure: as §1
The activity of lactate dehydrogenase (LDH) in a cell culture medium served as a marker of membrane permeability and cell death. Aliquotes of supernatants were taken after 24 h of inoculation with test compounds, mixed with 250 μL of […] NADH solution in 54 mM phosphate-buffered saline (pH 7.5). Then, 25 μL of a 6.48 mM pyruvate solution was added to the mixture. The optical density was followed at a wavelength of 340 nm for 20 min. The MTT-test was performed 24 h after incubations of cells with tested compounds. Briefly, 20 μL of MTT solution was added to each well, incubated at 37 °C in a humidified atmosphere containing 5% CO2 for 4 h. The culture medium was removed, the cells were lysed, and formazan crystals were dissolved in 150 μL DMSO. The plates were shaken at room temperature for 10 min, and the optical density was measured in a microplate reader Infinite M200 PRO (Tecan, Grödig, Austria) at a wavelength of 565 nm.

[3] = 24 h after LPS, dexamethasone 5 mg/kg, 9g 30 mg/kg i.p.

Cc1nc2nnnn2c(NCCc2ccc(O)cc2)c1[N+](=O)[O-] [Compound 9g, N-[2-(4-Hydroxyphenyl)ethyl]-5-methyl-6-nitrotetrazolo-[1,5-a]pyrimidin-7-amine]
Blood leukocyte subpopulations (C57BL/6J mice; 24 h after LPS): normalized leukocyte subpopulations to the values of intact animals
CD68+ cells in lung tissue, immunostaining (C57BL/6J mice; 24 h after LPS): decreased the immunoreactivity of the lung tissue
LPS-induced lung lesions, histologic scoring (hemorrhage and neutrophil infiltration) (C57BL/6J mice; 24 h after LPS, H&E, semi-quantitative): significantly ameliorated
Blood plasma IL-6 level (C57BL/6J mice; [3]): normalized the blood plasma IL-6 level
Permeability of pulmonary vessels (lung permeability index) (C57BL/6J mice; [3]): prevent the increase in permeability of pulmonary vessels
Horizontal motor activity, open field test (C57BL/6J mice; 24 h after LPS, dexamethasone 5 mg/kg, 9g 30 mg/kg i.p. 1 h before LPS): restored motor activity of animals comparably to dexamethasone
Segmented neutrophils count in BAL (in words) (C57BL/6J mice; 24 h after LPS, monocytes in BAL increased): significantly decreased the segmented neutrophils count
Spleen mass and lymphocyte content (markers of immunodepression) (C57BL/6J mice; LPS-treated mice, dexamethasone 5 mg/kg, 9g 30 mg/kg i.p.): nonsignificant
LPS-induced hypothermia (C57BL/6J mice; body temperature determined rectally): attenuated LPS-induced hypothermia
Segmented neutrophils, share of BAL cells (C57BL/6J mice; bronchoalveolar lavage 24 h after LPS, dexamethasone 5 mg/kg, 9g 30 mg/kg i.p.): 37.6%
Number of center entries and time in the center, open field test (C57BL/6J mice; dexamethasone 5 mg/kg, 9g 30 mg/kg i.p.): restored the number of center entries and time in the center to intact levels
inhibition at 100 µM ([1]; 22 h, 100 μM, m ± SD, read-out: Inhibition of NO Synthesis vs. LPS Control): 58.5 ± 5.93%
IC50 ([1]; LPS-stimulated peritoneal macrophages): 3.72 µM
CC50 at 24 h [2]: > 100 µM
